From patent US10407441B2, “Compositions and methods for treating neoplasia, inflammatory disease and other disorders” (Dana-Farber Cancer Institute, Inc., priority 2010, dated 2019) come the findings set out here.

Where two headings read alike, the source gives them in different places.

One data set relates to BRD3-NUT cells. The data set can be described thus: BRD3-NUT murine xenograft model. In kind it is in vivo, mouse. Conditions: 50 mg/kg IP 7 days/week. The text has this:
Mice were implanted subcutaneously with BRD3-NUT cells. Tumor measurement data were collected weekly. […] On day 24 post-injection, five mice from each group were euthanized and tumor samples were collected to be sent for lab analysis. Throughout the remainder of the study tumor samples were collected as mice were sacrificed. For all samples one half of the tumor was fixed in 10% formalin and the other half was flash frozen on dry ice. Treatment ended on day 32. Tumor volume and weights were collected weekly until all mice either became moribund or tumors reached 2 cm in any dimension. […] Upon cessation of therapy, tumor growth resumed. Tumor volume differences were significant at all points (p=7.65274E-09 at Day 24).

Another data set addresses GFP-BRD4-NUT (Homo sapiens (Human), UniProt O60885+Q86Y26). Conditions: 500 nM.
In the next data set the test system is NMC 797 xenografts. Briefly: NMC 797 xenograft efficacy study. The data set is classed as in vivo, mouse. From the text: Animals were followed daily for clinical symptoms.
A further data set concerns the target GFP-NUT (Homo sapiens (Human), UniProt Q86Y26). Briefly: FRAP in cells transfected with GFP-NUT. Conditions: 500 nM.
Data set [1] concerns TE10. Briefly: Differentiation immunohistochemistry in non-BRD4-dependent squamous carcinoma cell line.
Procedure: Media was then removed and chambers were washed with cold PBS. Cells were then fixed in 4% formaldehyde for 20 minutes at 4° C., washed with PBS and transferred to the Dana-Farber/Harvard Cancer Center (DF/HCC) Specialized Histopathology Services Core at Brigham and Women's Hospital for staining, as described below. […] Cells were then trypsinized and cell pellets were formed by centrifugation at 2,000 rpm for 10 minutes, stabilized with ½ volume of HistoGel (Richard-Allen Scientific) and 10% bovine serum albumin. Cell pellets were washed with PBS and fixed in 4% formaldehyde for 20 minutes at 4° C. The cells were then washed with PBS and transferred to the DF/HCC Core Laboratory at the Brigham and Women's Hospital for staining, as described below. […] All fixed material was embedded, sectioned and stained by the DF/HCC Core Laboratory at Brigham and Women's Hospital, using established optimized protocols. Images were obtained using an Olympus BX40 microscope (Olympus Imaging America, Center Valley, Pa.) and a Micropublisher 3.3 RTV color camera (QImaging, Surrey, BC).
For the next data set, the system named is cellular receptors. Briefly: Off-target effects on cellular receptors.
The test system of another data set is TT. The data set can be described thus: Cell proliferation, TT squamous carcinoma cell line. The data set is classed as cell-based, human. Conditions: 250 nM, 72 hours. Here is the method: (§1) Data is presented as mean±s.d. (n=3). IC50 values were calculated by logistic regression.
Data set [2] relates to TE10. Briefly: Cell proliferation, TE10 squamous carcinoma cell line. In kind it is cell-based, human. The conditions noted are these: 250 nM, 72 hours. Here is the method:
as §1

Another data set concerns the target GFP-BRD4 (Homo sapiens (Human), UniProt O60885). The data set can be described thus: FRAP in U2OS cells transfected with GFP-BRD4. The data set is classed as cell-based.
Data set [3] has as its system BRD4-dependent human carcinoma cells. The data set can be described thus: Annexin-V / propidium iodide flow cytometry (apoptosis). In kind it is cell-based. Conditions: 500 nM, 24 or 48 hours. Here is the method:
(§2) Thus, early and late apoptosis was assessed with annexin-V and propidium iodide staining by flow cytometry.
Trypsinized cells were mixed 1:1 on ice with Annexin-V/propidium iodide buffer (10 mM HEPES pH 7.4, 140 mM NaCl, 2.5 mM CaCl2) containing Annexin V-FITC (BD Pharmingen, 1:500) and propidium iodide (Invitrogen, 1:1000). Samples were immediately analyzed on a BD FACS Canto II. Visualizations and analyses of apoptotic fractions were generated using FlowJo flow cytometry analysis software (Tree Star, Inc.).

The subject of the next data set is NMC 11060 cells. The data set can be described thus: cells. The conditions noted are these: Homo sapiens, NMC 11060, 72 h, read-out: cellular viability IC50. The protocol: Data is presented as mean±s.d. (n=3). IC50 values were calculated by logistic regression. […] (n=3).
(§3) In parallel with these studies, a patient with widely metastatic BRD4-NUT positive NMC arising from the mediastinum was identified. With the goal of developing a more clinically-relevant disease model, short-term cultures were established using discarded clinical material obtained from pleural fluid draining from a palliative chest tube in the patient.

The test system of the next data set is Per403 cells. Briefly: cells. The conditions noted are these: Homo sapiens, PER-403, 72 h, read-out: Per403 IC50 (inhibition of cell growth). The protocol:
as §2

In a further data set the test system is NMC 797 and Per403 cells. Briefly: Differentiation and proliferation immunohistochemistry in NMC cells. In kind it is cell-based, human. The conditions noted are these: BRD4-dependent NMC cells.
In a further data set the test system is NMC 11060 xenografts. Briefly: Patient-derived NMC 11060 primary xenograft, PET imaging. The data set is classed as in vivo, mouse. Conditions: 50 mg kg^-1 daily for four days.
Excerpt: as §3
A general note: In xenograft studies the graft and the host belong to different species.

Another data set has as its system 10326 cells. The data set can be described thus: Cell proliferation assay, 10326 patient-derived cell line. Conditions: Homo sapiens, read-out: Cell-assay IC50 10326 cells. The data set is classed as cell-based.
The next data set concerns 797 cells. The data set can be described thus: Cell proliferation assay, 797 NMC cell line. In kind it is cell-based. Conditions: Homo sapiens, read-out: Cell-assay IC50 797 cells.
For the next data set, the target named is BRD4(2) (Homo sapiens (Human), UniProt O60885). The data set can be described thus: Alpha-assay acetyl-histone binding, BRD4 site 2.
In a further data set the target is BRD4(1) (Homo sapiens (Human), UniProt O60885). The data set can be described thus: Alpha-assay acetyl-histone binding, BRD4 site 1. Here is the method:
The binding activity of lead compounds with the BRD4 site 1 was determined by Alpha-assay with a 12-point dose response curve (FIG. 56A).
Assays were performed as described previously^8 with minor modifications from the manufacturer's protocol (PerkinElmer, USA). All reagents were diluted in 50 mM HEPES, 100 mM NaCl, 0.1% BSA, pH 7.4 supplemented with 0.05% CHAPS and allowed to equilibrate to room temperature prior to addition to plates. […] Plates were sealed and incubated for a further 30 minutes, before the addition of 4 μl of streptavidin-coated donor beads (25 μg/ml) and 4 μl nickel chelate acceptor beads (25 μg/ml) under low light conditions. Plates were foil-sealed to protect from light, incubated at room temperature for 60 minutes and read on a PHERAstar FS plate reader (BMG Labtech, Germany) using an AlphaScreen 680 excitation/570 emission filter set. IC50 values were calculated in Prism 5 (GraphPad Software, USA) after normalization against corresponding DMSO controls and are given as the final concentration of compound in the 20 μl reaction volume.

GFP-NUT, sequence (Q86Y26 whole entry, looked up): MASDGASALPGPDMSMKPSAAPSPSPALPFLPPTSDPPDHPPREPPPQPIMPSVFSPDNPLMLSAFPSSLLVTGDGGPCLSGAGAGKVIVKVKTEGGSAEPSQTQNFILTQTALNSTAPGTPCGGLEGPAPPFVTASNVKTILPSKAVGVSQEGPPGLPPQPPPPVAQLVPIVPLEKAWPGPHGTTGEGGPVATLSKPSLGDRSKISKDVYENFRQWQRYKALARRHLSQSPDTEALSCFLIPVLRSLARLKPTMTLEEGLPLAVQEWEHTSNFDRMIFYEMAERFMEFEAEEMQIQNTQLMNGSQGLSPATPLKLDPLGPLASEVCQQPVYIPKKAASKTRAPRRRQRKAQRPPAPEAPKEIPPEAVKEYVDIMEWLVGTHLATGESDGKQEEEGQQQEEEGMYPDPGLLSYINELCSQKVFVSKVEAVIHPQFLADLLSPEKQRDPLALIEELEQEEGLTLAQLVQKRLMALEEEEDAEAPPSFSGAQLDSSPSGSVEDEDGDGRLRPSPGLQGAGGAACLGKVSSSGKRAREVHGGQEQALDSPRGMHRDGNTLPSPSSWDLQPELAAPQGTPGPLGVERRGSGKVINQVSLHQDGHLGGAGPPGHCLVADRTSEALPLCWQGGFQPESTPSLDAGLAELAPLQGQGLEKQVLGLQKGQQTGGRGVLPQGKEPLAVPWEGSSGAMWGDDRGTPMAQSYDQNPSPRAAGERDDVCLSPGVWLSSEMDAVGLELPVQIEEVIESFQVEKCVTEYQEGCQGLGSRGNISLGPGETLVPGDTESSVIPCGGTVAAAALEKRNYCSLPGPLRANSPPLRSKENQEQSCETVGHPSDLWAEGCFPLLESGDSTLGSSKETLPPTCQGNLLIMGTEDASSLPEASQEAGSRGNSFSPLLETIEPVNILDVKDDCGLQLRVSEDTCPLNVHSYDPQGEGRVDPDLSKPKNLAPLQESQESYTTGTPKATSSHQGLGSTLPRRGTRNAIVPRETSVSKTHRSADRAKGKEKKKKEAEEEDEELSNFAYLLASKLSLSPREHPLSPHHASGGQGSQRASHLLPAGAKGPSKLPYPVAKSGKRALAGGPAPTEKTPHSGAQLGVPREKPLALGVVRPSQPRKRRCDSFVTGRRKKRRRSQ
Procedure for 10326 cells: Curve fit was calculated by logistical regression (FIG. 56C). […] Curve fit was calculated by logistical regression.
Procedure for 797 cells: Curve fit was calculated by logistical regression.
Cells were seeded into white, 384-well microtiter plates (Nunc) at 500 cells per well in a total volume of 50 μL media. […] Compounds were delivered to microtiter assay plates by robotic pin transfer (PerkinElmer JANUS equipped with a V&P Scientific 100 nL pin tool). Following a 48 h incubation at 37° C., cells were lysed and wells were assessed for total ATP content using a commercial proliferation assay (Cell TiterGlo; Promega). Replicate measurements were analyzed with respect to dose and estimates of IC50 were calculated by logistic regression (GraphPad Prism).
Procedure for GFP-BRD4-NUT: (§4) FRAP studies were performed on U2OS cells as previously described^3,20. In brief, U2OS cells were transfected (lipofectamine; Invitrogen) with mammalian overexpression constructs encoding GFP chimera with BRD4, NUT and BRD4-NUT. A 5 μm^2 nuclear region was bleached with high laser intensity in one cell within each field, and measured for recovery with low laser intensity and a 150 μm pinhole. Images of identical fields were acquired using a Nikon C1 Plus confocal microscope equipped with a 37° C. heated chamber and FRAP modules over 90 seconds. Average intensities of the bleached region were measured over time and using MetaMorph v7, and normalized to an independent region of interest before bleaching.
Procedure for GFP-NUT: as §4

Consider `Cc1sc2c(c1C)C(c1ccc(Cl)cc1)=NC(CC(=O)OC(C)(C)C)c1nnc(C)n1-2` (racemic) [JQ1, tert-Butyl 2-(4-(4-chlorophenyl)-2,3,9-trimethyl-6H-thieno[3,2-f][1,2,4]triazolo[4,3-a][1,4]diazepin-6-yl)acetate], for which, in the data set with BRD3-NUT cells, the body weight result was “mild weight loss” and the tumor volume entry is on record as “tumor regression”. Moreover, on GFP-BRD4-NUT, the “time-to-recovery of fluorescence intensity, GFP-BRD4-NUT” value is recorded as “markedly accelerated”. In addition, in the data set with NMC 797 xenografts (50 mg kg^-1 daily IP, 14 days), the “tolerability (toxicity, weight loss)” value was “well tolerated” and the “tumor growth (tumor volume by caliper)” value is given as “statistically-significant reduction in tumor growth”. The “FDG uptake by PET imaging” value in the data set on NMC 797 xenografts (50 mg kg^-1 daily IP, four days) is reported as “marked response on FDG uptake”. In the data set on NMC 797 xenografts (excised tumor specimens), the “keratin expression by quantitative IHC” value was “strong (3+) keratin expression”. Moreover, the “redistribution of GFP-NUT” value on GFP-NUT is reported as “no effect”. Moreover, the differentiation effects result with TE10 [1] is “fails to exhibit differentiation effects”. Moreover, the “off-target effects on cellular receptors” value with cellular receptors is listed as “few off-target effects”. For the same compound, the “effects on cell proliferation” value in the data set on TT was “Minimal effects”. Also, the “effects on cell proliferation” value in the data set on TE10 [2] is given as “Minimal effects”. The “fluorescence recovery of GFP-BRD4” value on GFP-BRD4 (500 nM) is listed as “immediate”. Besides, the “apoptosis (annexin-V and propidium iodide staining)” value in data set [3] was “induced immediate and progressive apoptosis”.
Take `Cc1sc2c(c1C)C(c1ccc(Cl)cc1)=N[C@@H](CC(=O)OC(C)(C)C)c1nnc(C)n1-2` (single isomer, unassigned) [(+)-JQ1]: the IC50 (in general, the point on the concentration scale where inhibition reaches its midpoint) was 0.004 µM in the data set on NMC 11060 cells and 0.06 µM with Per403 cells. In the data set on NMC 797 and Per403 cells, the “differentiation and growth arrest phenotypes” value is recorded as “prompted”. On GFP-BRD4 (250 nM, 5 h), the “fluorescence recovery of GFP-BRD4” value is given as “enhanced recovery”. Further, the “keratin expression by quantitative IHC” value in the data set on NMC 11060 xenografts is listed as “induction of keratin expression”.
`Cc1sc2c(c1C)C(c1ccc(Cl)cc1)=N[C@H](CC(=O)OC(C)(C)C)c1nnc(C)n1-2` [(R)-JQ1]: the half-maximal inhibitory concentration (IC50) with 10326 cells (72 h) came to 11800 nM; in the data set with 797 cells (72 h), 1540 µM.
The matching figures for `Cc1sc2c(c1C)C(c1ccc(Cl)cc1)=N[C@@H](CC(=O)OC(C)(C)C)c1nnc(C)n1-2` [(S)-JQ1, (S)-tert-Butyl 2-(4-(4-chlorophenyl)-2,3,9-trimethyl-6H-thieno[3,2-f][1,2,4]triazolo[4,3-a][1,4]diazepin-6-yl)acetate]: 1.5 nM and 0.0056 µM.
Consider `Cc1sc2c(c1C)C(c1ccc(Cl)cc1)=N[C@@H](CC(=O)N/N=C/c1ncc[nH]1)c1nnc(C)n1-2` [JQ6], for which the results for the half-maximal inhibitory concentration (IC50) with 10326 cells (proliferation after 72 hours) and in the data set on 797 cells (proliferation after 72 hours) were 0.051 nM and 0.001 µM, respectively. Moreover, on BRD4(2), the “binding activity with the BRD4 site 2” value is “excellent binding activity”. The “binding activity with the BRD4 site 1” value at BRD4(1) is reported as “excellent binding activity”.
In the case of `Cc1sc2c(c1C)C(c1ccc(Cl)cc1)=N[C@@H](CC(=O)NCCc1cnc[nH]1)c1nnc(C)n1-2` [JQ8], the IC50 turned out to be 2.8 nM in the data set on 10326 cells (proliferation after 72 hours) and 0.6 µM in the data set with 797 cells (proliferation after 72 hours). For the same compound, the “binding activity with the BRD4 site 2” value at BRD4(2) is “excellent binding activity”. In addition, the “binding activity with the BRD4 site 1” value on BRD4(1) is listed as “excellent binding activity”.
`Cc1sc2c(c1C)C(c1ccc(Cl)cc1)=N[C@@H](CC(=O)NCCN1CCN(C)CC1)c1nnc(C)n1-2` [JQ13]: the “binding activity with the BRD4 site 2” value at BRD4(2) was “excellent binding activity”. The “binding activity with the BRD4 site 1” value at BRD4(1) was “excellent binding activity”.
Take `Cc1sc2c(c1C)C(c1ccc(Cl)cc1)=NC(CC(=O)NCCN1CCOCC1)c1nnc(C)n1-2` (stereo not drawn) [JQ33]: the IC50 with 10326 cells (proliferation after 72 hours) worked out at 8 nM; in the data set with 797 cells (proliferation after 72 hours), 0.00297 µM.
As to `Cc1sc2c(c1C)C(c1ccc(Cl)cc1)=NC(CC(=O)NCCCN1CCN(C)CC1)c1nnc(C)n1-2` (stereo not drawn) [JQ35], the figures for the IC50 in the data set on 10326 cells (proliferation after 72 hours) and in the data set on 797 cells (proliferation after 72 hours) were 3 nM and 0.00609 µM, respectively. In addition, on BRD4(2), the “binding activity with the BRD4 site 2” value is recorded as “excellent binding activity”. Moreover, the “binding activity with the BRD4 site 1” value at BRD4(1) was “excellent binding activity”.
